We go through five compounds from ChEMBL document CHEMBL1152118, “Synthesis and pharmacological profile of two novel heterocyclic chromanols, CP-80,798 and CP-85,958, as potent LTD4 receptor antagonists” (Bioorg Med Chem Lett, 1995).

For assay [1], the system named is Cavia porcellus. In words: Inhibitory activity against LTD4 challenged pulmonary function test by oral administration (2 hr preantigen). Format: functional.
Assay [2] has as its system Cavia porcellus. In words: Dose required to block the airway obstruction induced by aerosolized antigen by oral administration. Format: functional.
The target of assay [3] is T1, Cysteinyl leukotriene receptor 1 (Cavia porcellus, UniProt Q2NNR5).
T1 sequence (Q2NNR5 whole entry): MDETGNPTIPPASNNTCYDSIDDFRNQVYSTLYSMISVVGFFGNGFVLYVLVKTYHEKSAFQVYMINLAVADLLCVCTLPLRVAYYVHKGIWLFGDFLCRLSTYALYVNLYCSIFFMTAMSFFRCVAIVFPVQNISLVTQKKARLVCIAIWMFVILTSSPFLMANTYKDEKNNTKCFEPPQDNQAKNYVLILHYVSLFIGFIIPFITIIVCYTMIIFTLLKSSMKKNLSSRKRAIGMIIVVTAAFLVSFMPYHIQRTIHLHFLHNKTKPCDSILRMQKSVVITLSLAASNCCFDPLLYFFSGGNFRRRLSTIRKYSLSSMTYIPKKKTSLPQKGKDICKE
Nature of the assay: Inhibition of [3H]LTD4 binding to LTD4 receptor in guinea pig lung membranes. Format: cell membranes, Membrane.

Assay [4] has as its system Cavia porcellus. Nature of the assay: Inhibitory activity against LTD4 challenged pulmonary function test by oral administration. Format: functional.
In assay [5] the target is T2, Polyunsaturated fatty acid 5-lipoxygenase (Rattus norvegicus, UniProt P12527).
T2 sequence (P12527 whole entry): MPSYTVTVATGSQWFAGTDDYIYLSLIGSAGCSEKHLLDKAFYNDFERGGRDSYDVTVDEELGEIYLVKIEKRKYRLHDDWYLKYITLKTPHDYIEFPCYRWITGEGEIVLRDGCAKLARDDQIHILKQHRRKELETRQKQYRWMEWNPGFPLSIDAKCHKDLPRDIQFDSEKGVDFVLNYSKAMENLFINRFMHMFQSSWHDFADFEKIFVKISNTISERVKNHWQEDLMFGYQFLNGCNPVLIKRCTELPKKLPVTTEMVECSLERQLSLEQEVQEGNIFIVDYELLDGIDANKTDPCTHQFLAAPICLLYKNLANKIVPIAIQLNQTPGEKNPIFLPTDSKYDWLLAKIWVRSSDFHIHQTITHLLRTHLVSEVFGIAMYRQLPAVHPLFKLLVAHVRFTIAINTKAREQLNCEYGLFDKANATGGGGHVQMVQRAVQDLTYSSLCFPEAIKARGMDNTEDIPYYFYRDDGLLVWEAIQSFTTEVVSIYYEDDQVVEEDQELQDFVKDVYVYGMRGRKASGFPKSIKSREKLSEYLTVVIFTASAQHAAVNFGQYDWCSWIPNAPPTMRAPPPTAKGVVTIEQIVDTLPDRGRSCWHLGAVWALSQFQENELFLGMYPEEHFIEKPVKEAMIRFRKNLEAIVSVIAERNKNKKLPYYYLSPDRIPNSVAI
In words: Inhibition of 5-Lipoxygenase (5-LO) in rat basophilic leukemia cells. Format: cell-based, RBL-1.

Usually ED50 stands for the dose that gives a 50% effect, or the effect in half of the subjects. High values mean weaker potency, low ones greater potency. In general, Ki refers to a measure of affinity in units of concentration, obtained from inhibition or displacement. A high value points to weaker binding. As usually defined, the IC50 is the concentration needed to halve the response being measured. Low readings indicate greater potency, high ones weaker potency. Turning to `O[C@@H]1c2cc(OCc3ccc4ccccc4n3)ccc2OC[C@@H]1Cc1cccnc1`, the ED50 in assay [1] was 20 mg/kg; in assay [2] it was 16 mg/kg; in assay [4], 3 mg/kg. This compound gave a Ki in assay [3] of 0.65 µM. Also, the half-inhibitory concentration (IC50) in assay [5] was found to be 1.9 µM.
`O[C@@H]1c2cc(OCc3ccc4ccccc4n3)ccc2CC[C@H]1Cc1ccccc1` displayed a Ki in assay [3] of 1.5 µM.
Still for that read-out and setting: then `CCCCC1CCc2ccc(OCc3ccc4ccccc4n3)cc2C1O` (stereo not drawn), with 6.8 µM.
In the case of `O=C(O)c1cccc(C[C@@H]2COc3ccc(OCc4nc5cc(F)ccc5s4)cc3[C@@H]2O)c1`, the ED50 was 0.43 mg/kg in assay [1], 10.8 mg/kg in assay [2] and 0.49 mg/kg in assay [4]. In assay [3], this compound showed a Ki of 24 µM. The midpoint of inhibition in assay [5], the IC50, lay at 8.1 µM.
Regarding `CCCCCC(O)c1cccc(OCc2ccc3ccccc3n2)c1` (stereo not drawn) [REV-5901], the Ki in assay [3] amounted to 8 µM.
